Reference: ChEMBL document CHEMBL1201862, “PubChem BioAssay data set” (2004)
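Five compound concentrations were applied to cells in 96-well plates for 48 hours; endpoints were derived by simple linear interpolation of the resulting dose-response curve. Abbreviation: GI50, concentration required for 50% inhibition of growth.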 The source made the active and inactive calls. Rule as the data show it: active = GI50 up to about 1.1 µM and inactive = higher.

What was measured:
Test in all cases: growth of human tumour cells (NCI), 48 h
LOX IMVI = test system: LOX IMVI
HT-29 = test system: HT-29
HCT-116 = test system: HCT-116
IGROV-1 = test system: IGROV-1
OVCAR-8 = test system: OVCAR-8
PC-3 = test system: PC-3
SNB-19 = test system: SNB-19
Hs-578T = test system: Hs-578T
MDA-N = test system: MDA-N
SF-295 = test system: SF-295
NCI/ADR-RES = test system: NCI/ADR-RES
NCI-H23 = test system: NCI-H23
SK-OV-3 = test system: SK-OV-3
SF-268 = test system: SF-268
RXF 393 = test system: RXF 393
UACC-257 = test system: UACC-257
SN12C = test system: SN12C
KM12 = test system: KM12
M14 = test system: M14
NCI-H522 = test system: NCI-H522
MDA-MB-231 = test system: MDA-MB-231
A549 = test system: A549
NCI-H460 = test system: NCI-H460
UACC-62 = test system: UACC-62
SK-MEL-28 = test system: SK-MEL-28
HCC 2998 = test system: HCC 2998
OVCAR-4 = test system: OVCAR-4
HOP-62 = test system: HOP-62
SK-MEL-5 = test system: SK-MEL-5
CAKI-1 = test system: CAKI-1
ACHN = test system: ACHN
SK-MEL-2 = test system: SK-MEL-2
U-251 = test system: U-251
MOLT-4 = test system: MOLT-4
OVCAR-3 = test system: OVCAR-3
COLO 205 = test system: COLO 205
HL-60 = test system: HL-60
BT-549 = test system: BT-549
NCI-H226 = test system: NCI-H226
TK-10 = test system: TK-10
OVCAR-5 = test system: OVCAR-5
HOP-92 = test system: HOP-92
A498 = test system: A498
UO-31 = test system: UO-31
DU-145 = test system: DU-145
EKVX = test system: EKVX
CCRF-CEM = test system: CCRF-CEM
MCF7 = test system: MCF7
SW-620 = test system: SW-620
RPMI-8226 = test system: RPMI-8226
Malme-3M = test system: Malme-3M
SF-539 = test system: SF-539
MDA-MB-435 = test system: MDA-MB-435
SR = test system: SR
K562 = test system: K562
SNB-75 = test system: SNB-75
HCT-15 = test system: HCT-15
T47D = test system: T47D
786-0 = test system: 786-0

Measured: GI50

CCCC(=O)Nc1cc(/C=C/C(=O)N2CC(CCl)c3ccc(N)cc32)n(C)c1 (stereo not drawn)
active: LOX IMVI 0.148 µM | HT-29 0.284 µM | HCT-116 0.129 µM | IGROV-1 0.229 µM | OVCAR-8 0.267 µM | PC-3 0.215 µM | SNB-19 0.406 µM | Hs-578T 0.277 µM | MDA-N 0.219 µM | SF-295 0.214 µM | NCI/ADR-RES 0.447 µM | NCI-H23 0.145 µM | SK-OV-3 0.47 µM | SF-268 0.259 µM | RXF 393 0.0474 µM | UACC-257 0.195 µM | SN12C 0.317 µM | KM12 0.257 µM | M14 0.337 µM | NCI-H522 < 0.0113 µM | MDA-MB-231 0.275 µM | A549 0.0294 µM | NCI-H460 0.0998 µM | UACC-62 0.092 µM | SK-MEL-28 0.292 µM | HCC 2998 0.0908 µM | OVCAR-4 0.188 µM | HOP-62 0.484 µM | SK-MEL-5 0.11 µM | CAKI-1 0.0441 µM | ACHN 0.0248 µM | SK-MEL-2 0.212 µM | U-251 0.324 µM | MOLT-4 0.17 µM | OVCAR-3 0.268 µM | COLO 205 0.134 µM | HL-60 0.206 µM | BT-549 0.193 µM | NCI-H226 0.282 µM | TK-10 0.112 µM | OVCAR-5 0.375 µM | HOP-92 0.0964 µM | A498 0.0223 µM | UO-31 0.159 µM | DU-145 0.0361 µM | EKVX 0.368 µM | CCRF-CEM 0.195 µM | MCF7 0.122 µM | SW-620 0.29 µM | RPMI-8226 0.177 µM | Malme-3M 0.18 µM | SF-539 0.22 µM | MDA-MB-435 0.256 µM | SR 0.0242 µM | K562 0.116 µM | SNB-75 0.388 µM | T47D 0.158 µM | 786-0 0.107 µM
0.304 µM: HCT-15

COc1ccc(/C=C2\CCC/C(=C\c3ccc(O)c(CN4CCCCC4)c3)C2=O)cc1
3.52 µM: HCT-15
inactive: LOX IMVI 2.82 µM | HT-29 2.3 µM | HCT-116 2.82 µM | IGROV-1 4.7 µM | OVCAR-8 2.81 µM | PC-3 4.74 µM | SNB-19 23.4 µM | Hs-578T 11.5 µM | MDA-N 3.55 µM | SF-295 6.95 µM | NCI/ADR-RES 2.77 µM | NCI-H23 4.93 µM | SK-OV-3 22.3 µM | SF-268 3.31 µM | RXF 393 20.3 µM | UACC-257 4.76 µM | SN12C 4.76 µM | KM12 2.3 µM | M14 4.06 µM | NCI-H522 2.96 µM | MDA-MB-231 4.09 µM | A549 8 µM | NCI-H460 4.98 µM | UACC-62 3.9 µM | SK-MEL-28 11.3 µM | HCC 2998 5.45 µM | OVCAR-4 22.2 µM | HOP-62 12.4 µM | SK-MEL-5 4.25 µM | CAKI-1 11.1 µM | ACHN 10.3 µM | SK-MEL-2 11.2 µM | U-251 4.06 µM | MOLT-4 2.59 µM | OVCAR-3 10.8 µM | COLO 205 8.09 µM | HL-60 6.93 µM | BT-549 4.65 µM | NCI-H226 6.67 µM | TK-10 5.77 µM | OVCAR-5 22.5 µM | HOP-92 9.79 µM | A498 9.57 µM | UO-31 6.75 µM | DU-145 9.02 µM | EKVX 10 µM | CCRF-CEM 4.02 µM | MCF7 3.73 µM | SW-620 3.33 µM | RPMI-8226 3.89 µM | Malme-3M 11.5 µM | SF-539 3.08 µM | MDA-MB-435 3.1 µM | SR 1.35 µM | K562 3.96 µM | SNB-75 12.6 µM | T47D 19.3 µM | 786-0 4.17 µM
